The subject of test [1] is interleukin 12. Put plainly: Inhibition of the IL 12 production in LPS-stimulated THP-1 cells. The test is classed as cell-based. The following applies: Homo sapiens, 0.1 μg/ml LPS overnight, read-out: Inhibition of the IL 12 Secretion (IC50). Here is the method:
(§1) The inhibition of the cytokine production can be visualized, for example, by measuring TNFα and interleukin 12 in lipopolysaccharide (LPS)-stimulated THP-1 cells.
(§2) For this purpose, 2.5×10^5 THP-1 cells (American Type Culture Company, Rockville, Md.)/ml of RPMI 1640 medium (Life Technologies)/10% FCS (Life Technologies, Cat. No. 10270-106) are grown on 96-hole flat-bottomed cell culture plates (TPP, Product No.9296) (100 μl/hole). The compounds according to the invention are added at various concentrations and pre-incubated for 30 minutes. The pre-dilution of the test substances was performed in the incubation medium. The addition of the test substances is carried out as a 2× concentrated substance solution (100 μl/hole). The stimulation of the cells was carried out overnight at 37° C with 0.1 μg/ml of LPS (Sigma L2630, of E. Coli Serotype 011 1.B4). Then, the medium was harvested, and the amount of TNFα or the amount of interleukin 12 was quantitatively determined. To measure the TNFα, a commercially available TNFα kit of the CIS Bio International Company was used (Product No. 62TNFPEB). The amount of interleukin 12 was implemented with the aid of the ORIGEN technology (IGEN International, Inc., Gaithersburg, Md.). The calculated IC50 value corresponds to the concentration of test substance that is required to reach a 50% inhibition of the maximum TNFα or interleukin 12 production. […]

Test [2] relates to IFNγ. In words: Inhibition of the IFNγ production of peripheral mononuclear blood cells (phytohemagglutinin-stimulated). The test is classed as cell-based. As to conditions: human peripheral mononuclear blood cells, 5 μg/mL phytohemagglutinin, 48 hours; read-out: Inhibition of the IFNγ Secretion (IC50). As for the experimental part:
To visualize the effect of the substances on T-cell activation, for example, the measurement of the IFNγ-secretion can be used.
To isolate peripheral mononuclear cells, human whole blood was used (drawing of blood via Na-citrate S-monovettes “Coagulation 9 NC/10 ml”/Sarstedt). The build-up of the blood cells was accomplished with the aid of density gradient centrifuging: For this purpose, 15 ml of Histopaque 1077 (Sigma, Cat. No. H8880) in LEUCOSEP tubes (Greiner, Cat. No. 227290) is introduced and centrifuged for 30 seconds at 1000 g. Then, 15 ml of whole blood is added and centrifuged for 10 minutes at 1000 g. Finally, the upper plasma layer is pipetted off and the subjacent cell layer (peripheral mononuclear blood cells) is transferred in 15 ml sample tubes (Falcon) and then […] several times with 10 ml of HBSS (HANKS Balanced Solution (without Mg2+ and Ca2+), Cat. No. 14175-53). […]
Then the medium was harvested, and the amount of IFNγ was determined quantitatively. The amount of IFNγ was determined with the aid of the ORIGEN technology (IGEN International, Inc., Gaithersburg, Md.). […]

In test [3] the test system is IL-12 HD p70. In words: Inhibition of IL-12 HD p70 production of peripheral mononuclear blood cells stimulated with LPS and IFNγ. The test is classed as cell-based, human. As to conditions: 24 hours; for IC50: Homo sapiens, read-out: Inhibition of IL-12HD Secretion after LPS & IFNg Stimulation IC50. Here is the method:
(§3) The inhibition of the TNFα and IL-12 HD p70 production is visualized by, for example, measuring TNFα and IL-12 HD p70 in peripheral mononuclear blood cells that are stimulated with lipopolysaccharide (LPS) and interferon gamma (IFNγ).
(§4) To isolate peripheral mononuclear blood cells, human whole blood was used (drawing of blood via Na-Citrate S-monovettes “Coagulation 9 NC/10 ml”/Sarstedt). The build-up of the lymphocytes and monocytes was accomplished with the aid of the density gradient centrifuging: For this purpose, 15 ml of Histopaque-1077 (Sigma, Cat. No. H8880) is introduced into 50 ml LEUCOSEP tubes (Greiner, Cat. No. 227290) and forced downward by centrifuging for 30 seconds at 250 g by the frits that are contained in the tubes. Then, 20 ml of whole blood is added and centrifuged for 15 minutes at 800 g and at room temperature. After centrifuging, the supernatant (plasma and thrombocytes) is pipetted off and discarded, and the subjacent cell layer (lymphocytes and monocytes) is transferred into 50 ml centrifuging tubes (Falcon) and then washed 3× in culture medium VLE RPMI 1640 (Seromed, No. FG1415) (centrifuging in each case for 10 minutes at 250 g, room temperature). Finally, the cell pellet is resuspended in culture medium VLE RPMI 1640 (Seromed, No. FG1415), 10% FCS (Life Technologies, Cat. No. 16000-044, low endotoxin, heat-inactivated for 1 hour, 56° C.), and 50 μg/ml of penicillin-streptomycin solution (Life Technologies, Cat. No.15140-106) and set at 3×10^6 cells/ml after cell counting by means of trypan blue staining. In each case, 100 μl of cell suspension solution was dispersed on 96-hole flat-bottomed cell culture plates (Costar, Product No. 3599). In each case, 100 μl of 3×-concentrated stimulation solution (3 μg/ml of LPS of E. coli Serotype 0127:B8; Sigma, Cat. No. L-4516 and 300 ng/ml of IFNγ 1b, Imukin, Boehringer Ingelheim) was added to it. The substances according to the invention were added at various concentrations as 3×-concentrated substance solution (100 μl/well). The stimulation of the cells was carried out at 37° C. and 5% CO2 over a period of 24 hours. Then, the cell culture supernatant was harvested, and the concentrations of TNFα and IL-12 HD p70 were determined by means of commercially available ELISA Kits of the BioSource International Company (TNF-α EASIA, Cat. No. KAC 1752) and R & D Systems (Quantikine1υ HS IL-12, Cat. No. HS 120).
(§5) The calculated IC50 value corresponds to the concentration of test substance that is required to reach a 50% inhibition of the maximum TNFα- or interleukin 12 HD p70 production.

Test [4] has as its system microglia. In words: Inhibition of the microglia activation. The test is classed as cell-based. From the text: Compounds that with stimulation with the Aβ-peptide achieve an inhibition of the microglia activity of at least 20% and an inhibition of the cytokine activity of at least 30% are suitable, according to the invention, as microglia inhibitors. The biological properties of the microglia inhibitors can be shown according to the methods that are known to one skilled in the art, for example with the aid of the testing methods that are described below and in WO 01/51473.

The subject of test [5] is TNFα. Put plainly: Inhibition of TNFα production of peripheral mononuclear blood cells stimulated with LPS and IFNγ. The test is classed as cell-based, human. The following applies: 24 hours; for IC50: Homo sapiens, read-out: Inhibition of TNF-alpha Secretion after LPS & IFNg Stimulation IC50. Here is the method:
as §3, §4, §5

The subject of test [6] is TNFα. In words: Inhibition of the TNFα production in LPS-stimulated THP-1 cells. The test is classed as cell-based. As to conditions: Homo sapiens, 0.1 μg/ml LPS overnight, read-out: Inhibition of the TNFα Secretion (IC50). As for the experimental part: as §1, §2
For test [7], the system named is IL-10. Put plainly: Induction of IL-10 production of peripheral mononuclear blood cells. The test is classed as cell-based, human. As to conditions: 24 hours; for EC50: Homo sapiens, PHA, read-out: Induction of the IL-10 Secretion after PHA Stimulation EC50. As for the experimental part:
The induction of IL-10 production is visualized by, for example, measuring IL-10 in peripheral mononuclear blood cells that are stimulated in phytohemagglutinin (PHA) or lipopolysaccharide (LPS).
To isolate peripheral mononuclear blood cells, human whole blood was used (drawing of blood via Na-Citrate S-monovettes “Coagulation 9 NC/10 ml”/Sarstedt). The build-up of the lymphocytes and monocytes was accomplished with the aid of the density gradient centrifuging: For this purpose, 15 ml of Histopaque-1077 (Sigma, Cat. No. H8880) in 50 ml LEUCOSEP tubes (Greiner, Cat. No. 227290) is introduced and forced downward by centrifuging for 30 seconds at 250 g by the frits that are contained in the tubes. Then, 20 ml of whole blood is added and centrifuged for 15 minutes at 800 g and at room temperature. After centrifuging, the supernatant (plasma and thrombocytes) is pipetted off and discarded, and the subjacent cell layer (lymphocytes and monocytes) in 50 ml centrifuging tubes (Falcon) is transferred and then washed 3× in culture medium VLE RPMI 1640 (Seromed, No. FG1415) (centrifuging in each case for 10 minutes at 250 g, room temperature). Finally, the cell pellet is resuspended in culture medium VLE RPMI 1640 (Seromed, No. FG1415), 10% FCS (Life Technologies, Cat. No. 16000-044, low endotoxin, heat-inactivated for 1 hour, 56° C.), 50 μg/ml of penicillin-streptomycin solution (Life Technologies, Cat. No. 15140-106) and set at 3×10^6 cells/ml after cell counting by means of trypan blue staining. In each case, 100 μl of cell suspension solution was dispersed on 96-hole flat-bottomed cell culture plates (Costar, Product No. 3599). In each case, 100 μl of 3×-concentrated stimulation solution (3 μg/ml of LPS of E. coli Serotype 0127:B8; Sigma, Cat. No. L-4516 or 300 μg/ml of PHA-L, Biochrom KG, Cat. No. M5030) was added to it. The substances according to the invention were added at various concentrations as 3×-concentrated substance solution (100 μl/well). The stimulation of the cells was carried out at 37° C. and 5% CO2 over a period of 24 hours. Then, the cell culture supernatant was harvested, and IL-10 was determined quantitatively. The IL-10 concentration was determined by means of a commercially available ELISA Kit of the BioSource International Company (human IL-10, Cat. No. KHC0101C). The calculated EC50 value corresponds to the concentration of test substance that is required to increase the IL-10 secretion by 50% of the maximum increase.

The structures appear in SMILES notation.

One may read the IC50 as the concentration needed to halve the response being measured. As a reminder, the EC50 is the concentration that produces a half-maximal response. As for `Cc1ccc(-n2c(-c3ccccc3)nc3ccc(OCCCCCC(=O)OC(C)C)cc32)cc1` [Substance 1, 6-[[1-(4-Methylphenyl)-2-phenyl-1H-benzimidazol-6-yl]oxy]hexanoic acid-isopropyl ester], the IC50 was 2200 nM in test [1]; 1300 nM in test [2]; 92 nM in test [3]; 750 nM in test [4]; 650 nM in test [5]; 3000 nM in test [6]. In test [3], the “Inhibition of IL-12HD Secretion after LPS & IFNg Stimulation Effectiveness” value was determined as 81%. The “Inhibition of TNF-alpha Secretion after LPS & IFNg Stimulation Effectiveness” value in test [5] is 65%. Moreover, in test [7], the “Induction of the IL-10 Secretion after PHA Stimulation Effectiveness” value came out at 245%. The EC50 in test [7] is more than 1000 nM.
`Cc1ccc(-n2c(-c3ccccc3)nc3ccc(OCCCCCC(=O)O)cc32)cc1` [Substance 2, 6-[[1-(4-Methylphenyl)-2-phenyl-1H-benzimidazol-6-yl]oxy]hexanoic acid]: the IC50 in test [1] was less than 300 nM; in test [2], 110 nM; in test [3], 30 nM; in test [4], 160 nM; in test [5] it was 120 nM; in test [6], 150 nM. Moreover, the “Inhibition of IL-12HD Secretion after LPS & IFNg Stimulation Effectiveness” value in test [3] is reported as 93%. In addition, the “Inhibition of TNF-alpha Secretion after LPS & IFNg Stimulation Effectiveness” value in test [5] is 83%. Also, the “Induction of the IL-10 Secretion after PHA Stimulation Effectiveness” value in test [7] came to 283%. Further, the concentration for a half-maximal effect (EC50) in test [7] was 180 nM.

These data come from US20060211690A1, “Microglia inhibitors for interrupting interleukin 12 and IFNgamma-mediated immune reactions” (Schering Aktiengesellschaft, priority 2002, published 2006).
